In patent US12612395B2, “Rocaglate derivatives and uses thereof” (TRUSTEES OF BOSTON UNIVERSITY, priority 2023, dated 2026):
Like-named read-outs stand apart in the source and are kept apart here.

Legend:
[1] = test system: GBM0308 CSCs; assay: Dose-response killing of GBM CSCs (PI/Hoechst, Celigo cytometer); format: cell-based
From the text: (§1) The inventors first evaluated a cohort of seven rocaglate translation inhibitors (1, 3-7, and 9, FIG. 1A and Table 1, compounds 2 and 8 were not tested due to unavailability). To assay for compounds that selectively affect GBM CSCs, the inventors employed the patient-derived tumor-initiating cell (TIC) cell line […] that forms neurospheres (consisting exclusively of tumor-initiating cells or CSCs) when cultured in neurobasal (NBE) medium. Upon exposure to serum and growth factor withdrawal, however, the cell line differentiates, acquires a flattened morphology, and forms a non-CSC population.^20 Thus, compounds can be tested in parallel to assess their effect on GBM CSCs vs. GBM non-CSCs as separate populations with a clean and robust response. This approach has been previously used to perform RNAi-based genetic screens to identify modulators of CSCs.^20 In this study, GBM0308 cells, cultured in stem cell conditions to form CSCs or in medium containing serum to induce differentiation into a non-CSC population, were treated in parallel with compounds at varying doses. Three days post-treatment, propidium iodide (PI) and Hoechst staining were performed and quantified using a Celigo image cytometer. Hoechst dye stained all […] nucleated cells, while PI exclusively stained dead cells. Cell viability and the percentage of cell death were then determined.
(§2) Cell Culture: Glioblastoma stem cell lines GBM0308, BT145, and BT112 were cultured in neurobasal (NBE medium) containing N-2 and B-27 supplements, EGF, bFGF, L-glutamine, and Penicillin-Streptomycin), as described previously.^19 Adherent GBM cells were cultured in serum-containing DMEM media (Invitrogen) supplemented with 10% fetal bovine serum (Corning Cellgro™). Cells were incubated at 37° C. and 5% CO2 to allow neurosphere formation. For seeding and subculturing, the neurospheres were gently trypsinized with 0.025% trypsin to form a single-cell suspension.
(§3) Dose-Response Testing in GBM Cells: Briefly, on day 1, cells were seeded in triplicate. For CSCs, 1500 cells/well were plated in a low attachment 96-well plate with NBE media and incubated for 3 days at 37° C. and 5% CO2 to allow the formation of neurospheres. For non-CSCs, 3000 cells/well were plated in a 96-well plate with DMEM media supplemented with 10% FBS. Similarly, the assay plates were also incubated for the same duration. Compound treatments started on day 4. Each compound was resuspended in DMSO and then diluted to different concentrations in media to a final concentration of DMSO less than 1%. The compounds were added at concentrations of 10, 3.3, 1.11, 0.37, 0.12, 0.041, 0.013, and 0.004 µM, respectively. DMSO-treated cells served as a control. After 72 h incubation with the compounds, fluorescent stains, propidium iodide, and Hoechst 33342 (Life Technologies, Carlsbad, CA), were used to stain the GBM cells to determine cell viability. A staining solution in 1×PBS was prepared by mixing PI and Hoechst 33342 to working concentrations of 2.5 μM and 20 μM, respectively. 20 μL of this staining solution was added per well, and plates were incubated at 37° C. and 5% CO2 for 60 min. After incubation, plates were read by Celigo imaging cytometer using an inbuilt Celigo application; Cell Viability (Dead+Total). For the viability measurement, the total number of neurospheres/cells and dead neurospheres/cells in each well were counted by the cytometer. The percentage of PI+ cells was normalized to DMSO and plotted against the drug concentration to calculate the EC50 with a four-parameter, variable-slope dose-response curve with an upper constraint of <100% dead cells and a lower constraint of =0% dead cells (GraphPad Prism v.10.0.0). For all dose response experiments, the experimental maximal efficacy (maximum observed % cell death) is reported. Relative EC50 values are reported for all compounds killing >50% of cells.

[2] = test system: GBM0308 non-CSCs; assay: Dose-response killing of GBM non-CSCs (PI/Hoechst, Celigo cytometer); format: cell-based; details: for Emax: Homo sapiens; for Emax / Non-CSCs Max. observed efficacy (% dead cells): 72 h
From the text: as §1, §2, §3

[3] = Homo sapiens, 72 h, Table 7, cell line not given, read-out: CSC Max. observed efficacy (% dead cells)
[4] = Homo sapiens, Table 7, cell line not given, read-out: CSC EC50
[5] = Table 7, cell line not given, read-out: Non-CSC Max. observed efficacy (% dead cells)
[6] = Table 1, GBM0308 CSCs, 72 h, up to 10 μM
[7] = Table 1, GBM0308 CSCs, 72 h treatment, relative EC50, given for compounds causing at least 50% cell death, read-out: CSCs EC50
[8] = Table 1, GBM0308 non-CSCs, up to 10 μM
[9] = Table 2, GBM0308 CSCs, 72 h, highest tested concentration 10 μM
[10] = Table 2, GBM0308 CSCs, 72 h treatment, relative EC50, read-out: CSCs EC50
[11] = Table 2, GBM0308 non-CSCs, highest tested concentration 10 μM
[12] = Homo sapiens, 72 h, read-out: CSCs EC50 (μM), Table 2, GBM0308 CSCs, 72 h treatment, relative EC50
[13] = Homo sapiens, 72 h, read-out: CSCs Max. observed efficacy (% dead cells), Table 2, GBM0308 CSCs, 72 h, highest tested concentration 10 μM
[14] = read-out: CSCs EC50, Table 2, GBM0308 CSCs, 72 h treatment, relative EC50
[15] = read-out: Non-CSCs Max. observed efficacy (% dead cells), Table 2, GBM0308 non-CSCs, highest tested concentration 10 μM
[16] = Homo sapiens, 72 h, read-out: CSC Max. observed efficacy (% dead cells), Table 7, cell line not given
[17] = Homo sapiens, read-out: CSC EC50 (μM), Table 7, cell line not given
[18] = read-out: Non-CSC Max. observed efficacy (% dead cells), Table 7, cell line not given

SMILES: COc1cc(OC)c2c(c1)O[C@@]1(c3ccc(Br)cc3)[C@H](c3ccccc3)[C@@H](C(=O)NS(=O)(=O)N(C)C)[C@@H](O)[C@@]21O (racemic) [BUCMD747 (rac), (1R,2R,3S,3aR,8bS)-3a-(4-bromophenyl)-N-(N,N-dimethylsulfamoyl)-1,8b-dihydroxy-6,8-dimethoxy-3-phenyl-2,3,3a,8b-tetrahydro-1H-cyclopenta[b]benzofuran-2-carboxamide]
- Emax [1, 3]: 89%
- EC50 [1, 4]: 0.453 µM
- Emax [2, 5]: 27%

SMILES: COc1ccc([C@@]23Oc4cc(OC)cc(OC)c4[C@]2(O)[C@H](O)[C@H](C(=O)N(C)OC)[C@H]3c2ccccc2)cc1 (racemic) [rac-6, rohinitib, reference compound]
- CSCs Max. observed efficacy (% dead cells) [1, 6]: 81%
- EC50 [1, 7]: 0.922 µM
- Non-CSCs Max. observed efficacy (% dead cells) [2, 8]: 25%

SMILES: COc1ccc([C@@]23Oc4cc(OC)cc(OC)c4[C@]2(O)[C@H](O)[C@H](C(=O)O)[C@H]3c2ccccc2)cc1 [(+)-10, rocaglaic acid]
- cytotoxic activity against CSCs, in words ([1]; GBM0308 CSCs): limited activity
- CSCs Max. observed efficacy (% dead cells) [1, 9]: 58%
- EC50 [1, 10]: 7.08 µM
- cytotoxic activity against non-CSCs, in words ([2]; GBM0308 non-CSCs): limited activity
- Non-CSCs Max. observed efficacy (% dead cells) [2, 11]: 30%

SMILES: COC(=O)[C@H]1[C@@H](O)[C@@]2(O)c3c(OC)cc(OC)cc3O[C@@]2(c2ccc(Br)cc2)[C@@H]1c1ccccc1 [(−)-9, reference compound]
- CSCs Max. observed efficacy (% dead cells) [1, 6]: 88%
- EC50 [1, 7]: 0.151 µM
- Non-CSCs Max. observed efficacy (% dead cells) [2, 8]: 25%

SMILES: COc1ccc([C@@]23Oc4cc(OC)cc(OC)c4[C@]2(O)[C@H](O)[C@H](C(=O)O)[C@H]3c2ccccc2)cc1 [(−)-10, rocaglaic acid]
- CSCs Max. observed efficacy (% dead cells) [1, 9]: 68%
- Non-CSCs Max. observed efficacy (% dead cells) [2, 11]: 27%

SMILES: COc1cc(OC)c2c(c1)O[C@@]1(c3ccc(Br)cc3)[C@H](c3ccccc3)[C@@H](C(=O)O)[C@@H](O)[C@@]21O [(−)-11]
- CSCs Max. observed efficacy (% dead cells) [1, 9]: 92%
- EC50 [1, 10]: 0.121 µM
- Non-CSCs Max. observed efficacy (% dead cells) [2, 11]: 25%

SMILES: COc1ccc([C@@]23Oc4cc(OC)cc(OC)c4[C@]2(O)[C@H](O)[C@H](C(=O)NS(C)(=O)=O)[C@H]3c2ccccc2)cc1 [(−)-15, (1R,2R,3S,3aR,8bS)-1,8b-dihydroxy-6,8-dimethoxy-3a-(4-methoxyphenyl)-N-(methylsulfonyl)-3-phenyl-2,3,3a,8b-tetrahydro-1H-cyclopenta[b]benzofuran-2-carboxamide]
- EC50 [1, 12]: 1 to 10 µM
- Emax [1, 13]: 85%
- EC50 [1, 14]: 0.98 µM
- Emax [2, 15]: 19%

SMILES: COc1ccc([C@@]23Oc4cc(OC)cc(OC)c4[C@]2(O)[C@H](O)[C@H](C(=O)NS(=O)(=O)N(C)C)[C@H]3c2ccccc2)cc1 [(−)-16, (1R,2R,3S,3aR,8bS)—N—(N,N-dimethylsulfamoyl)-1,8b-dihydroxy-6,8-dimethoxy-3a-(4-methoxyphenyl)-3-phenyl-2,3,3a,8b-tetrahydro-1H-cyclopenta[b]benzofuran-2-carboxamide]
- EC50 [1, 12]: 1 to 10 µM
- Emax [1, 13]: 76%
- EC50 [1, 14]: 1.73 µM
- Emax [2, 15]: 23%

SMILES: COc1cc(OC)c2c(c1)O[C@@]1(c3ccc(Br)cc3)[C@H](c3ccccc3)[C@@H](C(=O)NS(C)(=O)=O)[C@@H](O)[C@@]21O [(−)-19, (1R,2R,3S,3aR,8bS)-3a-(4-bromophenyl)-1,8b-dihydroxy-6,8-dimethoxy-N-(methylsulfonyl)-3-phenyl-2,3,3a,8b-tetrahydro-1H-cyclopenta[b]benzofuran-2-carboxamide]
- EC50 [1, 12]: 0.095 µM
- Emax [1, 13]: 92%
- EC50 ([1]; Homo sapiens, read-out: CSC EC50, text, GBM0308 CSCs): < 0.125 µM
- Emax [2, 15]: 20%

SMILES: C#CCNS(=O)(=O)NC(=O)[C@H]1[C@@H](O)[C@@]2(O)c3c(OC)cc(OC)cc3O[C@@]2(c2ccc(Br)cc2)[C@@H]1c1ccccc1 [(−)-21, (1R,2R,3S,3aR,8bS)-3a-(4-bromophenyl)-1,8b-dihydroxy-6,8-dimethoxy-3-phenyl-N—(N-(prop-2-yn-1-yl)sulfamoyl)-2,3,3a,8b-tetrahydro-1H-cyclopenta[b]benzofuran-2-carboxamide]
- EC50 [1, 12]: 0.016 µM
- Emax [1, 13]: 92%
- Emax [2, 15]: 27%

SMILES: COc1cc(OC)c2c(c1)O[C@@]1(c3ccc(Br)cc3)[C@H](c3ccccc3)[C@@H](C(=O)NS(=O)(=O)N(C)C)[C@@H](O)[C@@]21O [BUCMD790 (—), (1R,2R,3S,3aR,8bS)-3a-(4-bromophenyl)-N-(N,N-dimethylsulfamoyl)-1,8b-dihydroxy-6,8-dimethoxy-3-phenyl-2,3,3a,8b-tetrahydro-1H-cyclopenta[b]benzofuran-2-carboxamide]
- Emax [1, 3]: 93%
- EC50 [1, 4]: 0.045 µM
- Emax [2, 5]: 26%

SMILES: COc1cc(OC)c2c(c1)O[C@@]1(c3ccc(C(F)(F)F)cc3)[C@H](c3ccccc3)[C@@H](C(=O)NS(=O)(=O)N(C)C)[C@@H](O)[C@@]21O [ZW-12-29, (1R,2R,3S,3aR,8bS)—N—(N,N-dimethylsulfamoyl)-1,8b-dihydroxy-6,8-dimethoxy-3-phenyl-3a-(4-(trifluoromethyl)phenyl)-2,3,3a,8b-tetrahydro-1H-cyclopenta[b]benzofuran-2-carboxamide]
- Emax [1, 16]: 57%
- EC50 [1, 17]: 5.63 µM
- Emax [2, 18]: 26%

SMILES: COc1cc(OC)c2c(c1)O[C@@]1(c3ccc(C#N)cc3)[C@H](c3ccccc3)[C@@H](C(=O)NS(=O)(=O)N(C)C)[C@@H](O)[C@@]21O [ZW-12-30, (1R,2R,3S,3aR,8bS)-3a-(4-cyanophenyl)-N—(N,N-dimethylsulfamoyl)-1,8b-dihydroxy-6,8-dimethoxy-3-phenyl-2,3,3a,8b-tetrahydro-1H-cyclopenta[b]benzofuran-2-carboxamide]
- Emax [1, 16]: 94%
- EC50 [1, 17]: 0.632 µM
- Emax [2, 18]: 21%

SMILES: COc1cc(OC)c2c(c1)O[C@@]1(c3ccc(Cl)cc3)[C@H](c3ccccc3)[C@@H](C(=O)NS(=O)(=O)N(C)C)[C@@H](O)[C@@]21O [ZW-12-31, (1R,2R,3S,3aR,8bS)-3a-(4-chlorophenyl)-N—(N,N-dimethylsulfamoyl)-1,8b-dihydroxy-6,8-dimethoxy-3-phenyl-2,3,3a,8b-tetrahydro-1H-cyclopenta[b]benzofuran-2-carboxamide]
- Emax [1, 16]: 72%
- EC50 [1, 17]: 0.693 µM
- Emax [2, 18]: 25%

SMILES: COc1cc(OC)c2c(c1)O[C@@]1(c3ccc(Br)cc3)[C@H](c3ccccc3)[C@@H](C(=O)NS(=O)(=O)N(C)C(C)C)[C@@H](O)[C@@]21O [ZW-12-34, (1R,2R,3S,3aR,8bS)-3a-(4-bromophenyl)-1,8b-dihydroxy-N—(N-isopropyl-N-methylsulfamoyl)-6,8-dimethoxy-3-phenyl-2,3,3a,8b-tetrahydro-1H-cyclopenta[b]benzofuran-2-carboxamide]
- Emax [1, 16]: 79%
- EC50 [1, 17]: 1.85 µM
- Emax [2, 18]: 18%
